Values joined by “and” are separate entries in the source; they are usually repeats but may differ in a detail not shown here. Equal values may be shown once.
Key:
human PPARα = molecular target: T1, human PPARα (Homo sapiens, UniProt Q07869); test: in vitro PPARα transactivation (GAL4-LBD luciferase reporter in HEK-293 cells); type: cell-based
T1 construct: expressed in transfected cells; host or cells: HEK-293
T1 sequence (Q07869 239-466 limits assumed): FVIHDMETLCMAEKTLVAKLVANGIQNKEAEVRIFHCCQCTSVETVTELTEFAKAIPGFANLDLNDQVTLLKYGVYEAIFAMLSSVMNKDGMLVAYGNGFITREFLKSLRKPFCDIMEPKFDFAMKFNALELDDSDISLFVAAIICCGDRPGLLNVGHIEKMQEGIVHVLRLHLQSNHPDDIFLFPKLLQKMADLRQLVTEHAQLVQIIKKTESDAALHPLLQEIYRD
From the text: Generally, suitable PPAR agonists are believed to be useful for attenuating and/or treatment of diabetic dyslipidemia, metabolic syndrome, diabetes, cardiovascular disease, and obesity. The following procedure was used for in vitro determination of PPARα, γ and δ transactivation.
(§1) The ligand binding domain of human PPARγ1, PPARα or PPARδ was fused to the C-terminal end of DNA binding domain of yeast transcription factor GAL4 in eukaryotic expression vector. Using SuperFect (Qiagen), HEK-293 cells were transfected with this plasmid and a reporter plasmid harboring the luciferase gene driven under the control of 5 tandem GLA4 response elements. In some experiments, pAdVantage vector (Promega) was used to enhance luciferase expression. Compounds were added approximately 48 hours after transfection at various concentrations and incubated overnight. The cells were lysed and the luciferase activity was measured using the LucLite kit in Top Count (Packard). Luciferase activity was expressed as fold activation relative to untreated cells in the same experiment.

human PPARγ1 = molecular target: T2, human PPARγ1 (Homo sapiens, UniProt P37231); test: in vitro PPARγ transactivation (GAL4-LBD luciferase reporter in HEK-293 cells); type: cell-based
T2 construct: expressed in transfected cells; host or cells: HEK-293
T2 sequence (P37231 238-503 limits assumed): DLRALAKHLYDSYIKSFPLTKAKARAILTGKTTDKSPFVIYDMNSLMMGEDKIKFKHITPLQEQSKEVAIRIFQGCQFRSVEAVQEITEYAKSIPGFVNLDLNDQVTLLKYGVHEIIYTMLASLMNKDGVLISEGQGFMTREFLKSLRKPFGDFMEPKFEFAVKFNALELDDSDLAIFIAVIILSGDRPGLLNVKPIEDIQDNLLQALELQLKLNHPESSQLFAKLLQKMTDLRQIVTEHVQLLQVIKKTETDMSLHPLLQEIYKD
From the text: The following procedure was used for in vitro determination of PPARα, γ and δ transactivation.
as §1

Male Swiss albino mice = test: plasma triglyceride lowering in Swiss albino mice; type: in vivo; conditions: 3 mg/kg orally for 6 days, plasma triglycerides
Protocol: Male Swiss albino mice (SAM) were obtained from National Institute Nutrition (NIN, Hyderabad, India) and housed in Dr. Reddy's Laboratories Ltd (DRL) animal house. All these animals were maintained under 12 hour light and dark cycle at 25±1° C. Animals were given standard laboratory chow (NIN, Hyderabad, India) and water, ad libitum. Mice of 20-25 grams body weight range were used. See Olivier, et al., Atherosclerosis, 1988, 70:107-114, incorporated herein by reference in its entirety. The test compounds were administered orally to mice at the doses shown in the following in table for 6 days. […] After centrifugation, plasma was separated for plasma triglyceride and total cholesterol measurement. See Wieland, Methods of Enzymatic Analysis, Bergermeyer, ed., 1963, 211-214; Trinder, Ann. Clin. Biochenz., 1969, 6:24-27, incorporated herein by reference in their entireties. Measurement of cholesterol and plasma triglyceride was done using a […] autoanalyser (Merck). The percent reductions in plasma triglycerides (TG)/total cholesterol were calculated according to the following formula: [formula] OC=Zero day control group value OT=Zero day treated group value TC=Test day control group value TT=Test day treated group value.

Structure (SMILES)	melting point [°C]	PPARα luciferase fold activation relative to untreated cells (human PPARα; 10 μM)	PPARα luciferase fold activation relative to untreated cells (human PPARα; 50 μM)	further results
CC(C)(Sc1ccc(OCc2cc(-c3ccc(C(F)(F)F)cc3)no2)cc1)C(=O)O [Example 14]	120 to 122	–	–	–
CCC(C)(Oc1ccc(OCCCc2cc(-c3ccc(Cl)cc3)no2)cc1)C(=O)O (stereo not drawn) [Example 34, 2-Methyl-2-{4-[3-(3-(4-chlorophenyl)isoxazol-5-yl)propoxy]phenoxy}butyric acid]	130 to 132	–	–	–
CCC(C)(Oc1ccc(OCc2cc(-c3ccc(O)cc3)no2)cc1)C(=O)O (stereo not drawn) [Example 4]	142 to 144	–	–	–
CCC(C)(Oc1ccc(OCc2cc(-c3ccccc3)no2)cc1)C(=O)O (stereo not drawn) [Example 8]	70 to 74	2.6	3.5	PPARα luciferase fold activation relative to untreated cells (human PPARα; 1 μM): 1.3; PPARγ luciferase fold activation relative to untreated cells (human PPARγ1; 1 μM): 0.5; PPARγ luciferase fold activation relative to untreated cells (human PPARγ1; 10 μM): 1.2; PPARγ luciferase fold activation relative to untreated cells (human PPARγ1; 50 μM): 4.1; % reduction in TG (Male Swiss albino mice): 52%
Cc1cccc(Nc2cc(Cl)nc(SCC(=O)O)n2)c1C [Wyeth 14643, reference compound]	–	1.7 and 1.6 and 1.4 and 2.5 and 2.7 and 2.4	3.4 and 5.0 and 4.2 and 5.2 and 4.1 and 6.1 and 4.6 and 4.0	–
O=C(O)C1(Oc2ccc(OCc3cc(-c4ccccc4)no3)cc2)CCCC1 [Example 9]	135 to 137	1.2	1.7	PPARα luciferase fold activation relative to untreated cells (human PPARα; 1 μM): 0.8; PPARγ luciferase fold activation relative to untreated cells (human PPARγ1; 1 μM): 1.2; PPARγ luciferase fold activation relative to untreated cells (human PPARγ1; 10 μM): 0.9; PPARγ luciferase fold activation relative to untreated cells (human PPARγ1; 50 μM): 2.4
CC(C)(Oc1ccc(OCc2cc(-c3ccc(-c4ccccc4)cc3)no2)cc1)C(=O)O [Example 18]	168 to 170	–	–	–
CCC(C)(Oc1ccc(OCc2cc(-c3ccc([N+](=O)[O-])cc3)no2)cc1)C(=O)O (stereo not drawn) [Example 22]	128 to 130	–	–	–
CCC(C)(Oc1ccc(OC/C=C/c2cc(-c3ccccc3)no2)cc1)C(=O)O (stereo not drawn) [Example 20]	118 to 120	–	–	–
CC[C@](C)(Oc1ccc(OCCCc2cc(-c3ccccc3)no2)cc1)C(=O)O [Example 16]	121 to 122	–	–	–
O=C(O)C1(Cc2ccc(OCc3cc(-c4ccccc4)no3)cc2)CCCO1 (stereo not drawn) [Example 39]	–	3.9	4.7	PPARα luciferase fold activation relative to untreated cells (human PPARα; 1 μM): 1.1 (1.1); PPARγ luciferase fold activation relative to untreated cells (human PPARγ1; 1 μM): 1.8; PPARγ luciferase fold activation relative to untreated cells (human PPARγ1; 10 μM): 3.9; PPARγ luciferase fold activation relative to untreated cells (human PPARγ1; 50 μM): 9.0; % reduction in TG (Male Swiss albino mice): 44%
CCC(C)(Oc1ccc(OCc2cc(-c3ccc(OCc4ccccc4)cc3)no2)cc1)C(=O)O (stereo not drawn) [Example 3]	132 to 134	–	–	–
CCC(C)(Oc1ccc(OCc2cc(-c3ccc(C)cc3)no2)cc1)C(=O)OC (stereo not drawn) [Example 29, 2-Methyl-2-[4-(3-(4-methylphenyl)isoxazol-5-ylmethoxy)phenoxy]butyric acid, methyl ester]	100 to 102	–	–	–
